Test results: patent US12077486B2, “Quaternary fatty amidoamine detergents” (NOURYON CHEMICALS INTERNATIONAL B.V., priority 2018, dated 2024)

What was measured:
[1] = solubility in an a-polar medium; assay type: physicochemical
Experimental: Throughout this document, unless indicated differently, the weight percentages of the compositions are based on the total weight of the composition, whereby the total weight of the composition is 100 wt %. The term water-soluble is used for materials that dissolve in an amount of at least 1 g per liter of demineralized water at 25° C. Where used, the term “consisting” also embraces “consisting substantially”, but may optionally be limited to its strict meaning of “consisting entirely”. An a-polar (nonpolar) medium is herein defined as a material having a dielectric coefficient of less than 7 at 20° C. Typically it is a liquid at the temperature of use. Suitably it is a medium with a dielectric coefficient at 20° C. of less than 6.5, 6, 5.5, 5, 4.5, 4, 3.5, or 3. The dielectric constant is measured in accordance with ASTM D150. The term “substantially free” is used fora moiety that is present in an amount of less than 2% by weight. Similarly, the term “essentially” is used to denote a composition that consists for more than 95% by weight of the indicated components.

[2] = stabilization of a dispersion of solids in a-polar medium; conditions: over a wide range of temperatures

- dissolution in an a-polar medium [1]: easily dissolve
- stabilization of a dispersion of solids in the dissolution [2]: perfectly stabilize
SMILES: CCCCC/C=C\CCC(CCCCCCCC(=O)NCCC[N+](C)(C)C)C(CCCCCCCC)CCCCCCCCC(=O)NCCC[N+](C)(C)C (centres unmarked) [Preparation Example 1]
